Test results published in US6562864B1, “Catechin multimers as therapeutic drug delivery agents” (priority 1999, dated 2003).
Where two headings read alike, the source gives them in different places.

What was measured:
rat aortic rings = test: Contraction and endothelium dependent relaxation of rat aortic rings; conditions: mean (±SEM)
Method: Male Sprague-Dawley rats (200-250 g) were euthanized with an overdose of sodium pentobarbital (100 mg/kg, i.p.) and bled. The thoracic aorta was excised and cleaned and rings 3-4 mm in length were cut, taking care not to disturb the endothelium The rings were suspended in tissue baths containing a physiologic salt solution. The solution was bubbled continuously with O2/CO2 (95%/5%), and maintained at 37° C. Contraction activity was recorded on a Grass polygraph. After equilibration for at least 1 h under 1.5 g of tension, tissues were contracted submaximally (approximately 80% of Emax) with 1 μM phenylephrine. […] This concentration of acetylcholine is sufficient to produce maximum endothelium dependent relaxation in intact rings.
Rings were washed with physiological salt solution three times over the next 45 min. prior to the subsequent testing. Beginning with a concentration determined in preliminary experiments to be below the threshold for relaxation, and increased until a relaxation of approximately 15% was achieved (relative to the relaxation induced by 3 μM acetycholine).

human platelets [1] = test: Human platelet aggregation trial with thrombin as aggregating agent; type: cell-based
Method: (§1) Human platelet aggregation trials, using PAF and thrombin as aggregating agents, were conducted with gallic acid, catechin and amidated catechin multimers (made according to the process of Example 1). The protocol was as follows: Test compounds (50 μM gallic acid, 100 μM catechin and 3 μM amidated catechin multimer) were dissolved in water and 10 μl of sample was added to 1 ml aliquots of human platelets to give the final estimated vessel content concentration of 3 μM.^1 Next, human platelets at a concentration of 1×10^−7/ml were preincubated for ten minutes at 37° C. with either vehicle (contol) or with 3 μM of the amino-catechin multimer test compound. Then, either platelet activating factor (5×10^−10 μM) or thrombin (0.05 mg/ml) were added and aggregation was monitored over the next 10 minutes in a PACKS-4 Platelet Aggregation Chromogenic Kinetic System (Helena Lab., Beaumont, Tex.). ^1 The molar concentration of total product was 10 μM. […] For molar calculations, the molecular weight of the amino-catechin was presumed to be 300 daltons.

human platelets [2] = test: Human platelet aggregation trial with platelet activating factor (PAF) as aggregating agent; type: cell-based
Method: as §1

[3] = Preliminary ex-vitro trials: cholesterol solubility in human plasma
Text: Limonene is commonly thought of as a solvent, having a KB value of 67.

Compound: CNC[C@H](O)c1cccc(O)c1 [phenylephrine]
- EC50 (rat aortic rings; rat aortic rings, read-out: EC50 value for phenylephrine (contractile effect)): 140 ± 20 nM

Compound: O=C(O)c1cc(O)c(O)c(O)c1 [gallic acid]
- inhibition of human platelet aggregation caused by thrombin (human platelets [1]; 50 μM): no inhibition
- inhibition of human platelet aggregation caused by platelet activating factor (human platelets [2]; 50 μM): no inhibition

Compound: O.Oc1cc(O)c2c(c1)O[C@H](c1ccc(O)c(O)c1)[C@@H](O)C2 [catechin]
- inhibition of human platelet aggregation caused by thrombin (human platelets [1]; 100 μM): no inhibition
- inhibition of human platelet aggregation caused by platelet activating factor (human platelets [2]; 100 μM): no inhibition

Compound: C=C(C)C1CC=C(C)CC1 (centres unmarked) [limonene, 4-isopropenyl-1-methylcyclohexene]
- rate of plasma metabolizing excess cholesterol ([3]; minimum rate): ≥ 4 % per hour
- increase of the rate of solubility of cholesterol ([3]; over a one hour period): 24%

Compound: CC(=O)OCC[N+](C)(C)C [acetylcholine]
- EC50 (rat aortic rings; rat aortic rings contracted with 1 μM phenylephrine, read-out: EC50 for EDR (endothelium dependent relaxation)): 120 ± 60 nM
